Reference: paper PMC8592419 (PLoS ONE, 2021)

Key:
Test in all cases: microbe, parasite or virus in culture
[1] = tested on: M. abscessus clinical isolate MAB11; format: cell-based, M. abscessus subsp. abscessus
Experimental: (§1) Mab suspensions at a 5×10^5 CFU/ml final concentration were added to each well and incubated for 3 days and 14 days at 37°C. MIC values were defined when the percent killing of CFUs of more than 90% were compared to the media controls without AMPs or drugs. The fraction inhibitory concentration index (FICI) was calculated using the following formula: FICI = [C(MIC^A)/MIC^A] + [C(MIC^B)/MIC^B]. […] For interpretation, FICI ≤ 0.5 was interpreted as synergism, FICI >0.5–1.0 was interpreted as additive, FICI >1.0–4.0 was interpreted as indifferent and FICI >4.0 was interpreted as antagonism.

[2] = tested on: M. abscessus clinical isolate MAB05; format: cell-based, M. abscessus subsp. abscessus
Experimental: as §1

[3] = tested on: M. abscessus clinical isolate MAB03; format: cell-based, M. abscessus subsp. abscessus
Experimental: as §1

[4] = tested on: M. abscessus clinical isolate MAB07; format: cell-based, M. abscessus subsp. abscessus
Experimental: as §1

[5] = tested on: M. abscessus clinical isolate MAB01; format: cell-based, M. abscessus subsp. abscessus
Experimental: as §1

[6] = tested on: M. abscessus clinical isolate MAB10; format: cell-based, M. abscessus subsp. abscessus
Experimental: as §1

[7] = tested on: M. abscessus clinical isolate MAB02; format: cell-based, M. abscessus subsp. abscessus
Experimental: as §1

[8] = tested on: M. abscessus clinical isolate MAB09; format: cell-based, M. abscessus subsp. abscessus
Experimental: as §1

[9] = tested on: M. abscessus clinical isolate MAB14; format: cell-based, M. abscessus subsp. massiliense
Experimental: as §1

[10] = tested on: M. abscessus clinical isolate MAB12; format: cell-based, M. abscessus subsp. massiliense
Experimental: as §1

[11] = Mycobacteroides abscessus, read-out: MIC of CLA

- MIC of CLA, combined CLA + S61 ([1]; MAB11, checkerboard, in combination with S61): 128 µg/mL
- MIC of CLA, combined CLA + S62 ([1]; MAB11, checkerboard, in combination with S62): 192 µg/mL
- MIC of CLA, combined CLA + S63 ([1]; MAB11, checkerboard, in combination with S63): 192 µg/mL
- MIC [1, 11]: 512 µg/mL
- MIC of CLA, combined CLA + S61 ([2]; MAB05, checkerboard, in combination with S61): 16 µg/mL
- MIC of CLA, combined CLA + S62 ([2]; MAB05, checkerboard, in combination with S62): 16 µg/mL
- MIC of CLA, combined CLA + S63 ([2]; MAB05, checkerboard, in combination with S63): 16 µg/mL
- MIC [2, 11]: 16 µg/mL
- MIC of CLA, combined CLA + S61 ([3]; MAB03, checkerboard, in combination with S61): 2 µg/mL
- MIC of CLA, combined CLA + S62 ([3]; MAB03, checkerboard, in combination with S62): 1.5 µg/mL
- MIC of CLA, combined CLA + S63 ([3]; MAB03, checkerboard, in combination with S63): 4 µg/mL
- MIC [3, 11]: 8 µg/mL
- MIC of CLA, combined CLA + S61 ([4]; MAB07, checkerboard, in combination with S61): 0.25 µg/mL
- MIC of CLA, combined CLA + S62 ([4]; MAB07, checkerboard, in combination with S62): 0.25 µg/mL
- MIC of CLA, combined CLA + S63 ([4]; MAB07, checkerboard, in combination with S63): 0.25 µg/mL
- MIC [4, 11]: 16 µg/mL
- MIC of CLA, combined CLA + S61 ([5]; MAB01, checkerboard, in combination with S61): 32 µg/mL
- MIC of CLA, combined CLA + S62 ([5]; MAB01, checkerboard, in combination with S62): 96 µg/mL
- MIC [5, 11]: 1020 µg/mL
- MIC of CLA, combined CLA + S61 ([6]; MAB10, checkerboard, in combination with S61): 32 µg/mL
- MIC of CLA, combined CLA + S62 ([6]; MAB10, checkerboard, in combination with S62): 32 µg/mL
- MIC of CLA, combined CLA + S63 ([6]; MAB10, checkerboard, in combination with S63): 8 µg/mL
- MIC [6, 11]: 1020 µg/mL
- MIC of CLA, combined CLA + S61 ([7]; MAB02, checkerboard, in combination with S61): 64 µg/mL
- MIC of CLA, combined CLA + S62 ([7]; MAB02, checkerboard, in combination with S62): 64 µg/mL
- MIC of CLA, combined CLA + S63 ([7]; MAB02, checkerboard, in combination with S63): 64 µg/mL
- MIC [7, 11]: 64 µg/mL
- MIC of CLA, combined CLA + S61 ([8]; MAB09, checkerboard, in combination with S61): 8 µg/mL
- MIC of CLA, combined CLA + S62 ([8]; MAB09, checkerboard, in combination with S62): 6 µg/mL
- MIC of CLA, combined CLA + S63 ([8]; MAB09, checkerboard, in combination with S63): 4 µg/mL
- MIC [8, 11]: 8 µg/mL
- MIC of CLA, combined CLA + S61 ([9]; MAB14, checkerboard, in combination with S61): 4 µg/mL
- MIC of CLA, combined CLA + S62 ([9]; MAB14, checkerboard, in combination with S62): 4 µg/mL
- MIC of CLA, combined CLA + S63 ([9]; MAB14, checkerboard, in combination with S63): 32 µg/mL
- MIC [9, 11]: 512 µg/mL
- MIC of CLA, combined CLA + S61 ([10]; MAB12, checkerboard, in combination with S61): 1,024 μg/ml
- MIC of CLA, combined CLA + S62 ([10]; MAB12, checkerboard, in combination with S62): 1,024 μg/ml
- MIC of CLA, combined CLA + S63 ([10]; MAB12, checkerboard, in combination with S63): 1,024 μg/ml
- MIC [10, 11]: 1020 µg/mL
Structure (SMILES): CC[C@H]1OC(=O)[C@H](C)[C@@H](O[C@H]2C[C@@](C)(OC)[C@@H](O)[C@H](C)O2)[C@H](C)[C@@H](O[C@@H]2O[C@H](C)C[C@H](N(C)C)[C@H]2O)[C@](C)(OC)C[C@@H](C)C(=O)[C@H](C)[C@@H](O)[C@]1(C)O [CLA, Clarithromycin]
